Paper PMC13403234, “Engineering Cathepsin S Selective Chemical Probes and Antibody−Drug Conjugates through Substrate Profiling with Unnatural Amino Acids” (Journal of Medicinal Chemistry, 2026)
*1 amine or outer side, *2 acyl side, *3 side chain or, on linkers, in order; H or OH if unused. Where a SMILES comes first, the peptide text is derived from it. [ ]: non-standard residue; d: D form. The star is where a group is joined. Dolaproine = CO[C@@H]([C@@H]1CCCN1)[C@@H](C)C(=O)O; Dil = CC[C@H](C)[C@H](NC)[C@@H](CC(=O)O)OC; Met(O2) = CS(=O)(=O)CC[C@H](N)C(=O)O; PABC = O=C(OCc1ccc(N[*:1])cc1)[*:2]; X1 = C[C@@H](N*)[C@@H](O)c1ccccc1; tBuAla = CC(C)(C)C[C@H](N)C(=O)O; Cit = NC(=O)NCCC[C@H](N)C(=O)O; NMeV = CN[C@H](C(=O)O)C(C)C; Cbz = O=C(OCc1ccccc1)*

Columns and labels:
[1] = target: T1, active cathepsin S in MDA-MB-231 live cells (Homo sapiens, UniProt P25774); test: Labeling of active cathepsin S in MDA-MB-231 live cells with Cy5 probes; format: cell-based; details: probe 1 μM, 0,5 to 24 h
T1 construct: endogenous in cells; host or cells: MDA-MB-231
Description: (§1) 50,000 of MDA-MB-231 cells were seeded into 12-well plate and allowed to attach overnight. The next day, OG-233 and OG-234 probes (1 μM final concentration) were added to the cells and incubated for various times (from 0,5 h up to 24 h). Control cells were preincubated with cathepsin S inhibitors (JN1, JN4, JN7) at 25 μM for 2 h, and then incubated with OG-233 or OG-234 probes for 24 h. Next, cells were harvested and prepared for SDS-PAGE analysis as described in the above section. Electrophoresis was run for 25 min (4−12% Bis-Tris Plus 10-well gel, 200 V). Next, proteins were transferred onto the membrane (0.2 μm nitrocellulose membrane, 10 V, 60 min) and Ponceau S was used to verify equal loading and transfer. Membranes were then blocked with 5% BSA in TBS-T buffer for 1 h at RT. Membranes were next incubated anticathepsin S antibody (1:1,000, overnight, 4 °C), and the next day with a secondary antibody (IRDye 800CW, donkey anti-Goat) for 30 min at RT, and scanned at 680 and 800 nm using the Sapphire biomolecular imager (Azure Biosystems) to detect the Cy5 probes and cathepsin S. All images were analyzed with Image Studio software.

Cathepsin L = target: T2, Cathepsin L (Homo sapiens, UniProt P07711); test: Second-order rate constants of inhibition (kobs/[I]), cathepsin L; format: biochemical; details: Figure 4D; Cy5- and BODIPY-labeled probes
T2 construct: made in house
Description: (§2) All kinetic studies were performed using an fMax fluorescence plate reader (Molecular Devices) in kinetic mode with 96- or 384-well plates. ACC fluorescence was monitored at excitation and emission wavelengths of 355 and 460 nm, respectively. Recombinant human cysteine cathepsins L, V, B, K, and S were expressed and purified as previously described. Prior to use, all cysteine cathepsins were titrated with E64 to normalize enzymatic activity. Assays for cathepsins were conducted in 100 mM sodium acetate buffer containing 10 mM NaCl and 10 mM DTT (pH 5.5). Breast cancer cell lysates (BT-474, MCF-7, MDA-MB-231) were prepared by culturing cells to confluence in the appropriate media, replacing media with PBS, and harvesting the cells using a cell scraper (without trypsin). The cells were pelleted by centrifugation (400 × g, 5 min), resuspended in PBS, and centrifuged again under the same conditions. After removal of the supernatant, the pellet was resuspended in cathepsin assay buffer (excluding DTT) and sonicated. Lysates were then clarified by centrifugation (12,000 × g, 5 min), and the supernatants were collected and stored at −80 °C until use. All enzymatic assays, including HyCoSuL library screening and kinetic analyses of synthetic substrates, inhibitors, probes and prodrugs, were conducted at 37 °C and repeated at least three times. Mean values are reported. Kinetic data were analyzed using GraphPad Prism software (version 10.4.1).
(§3) The second-order rate constants of inhibition (k obs/[I]) were determined for human recombinant cathepsins S, B, L, and V using their respective assay buffers. All measurements were performed under pseudo-first-order kinetic conditions, as previously described. Inhibitors or ABPs were serially diluted in assay buffer and transferred to a 96-well plate. Each well was supplemented with the fluorogenic substrate Cbz-Phe-Arg-AMC at a final concentration of 25 μM and preincubated for 15 min. In parallel, enzymes were preactivated in assay buffer for 15 min at room temperature. Following preincubation, the activated enzymes were added to the wells, and fluorescence was monitored immediately for 30 min. The k obs/[I] values (M^-1S^-1) were calculated from the progress curves and averaged from at least three independent experiments. Final inhibitor (or ABP) concentrations were maintained at a minimum of 5-fold excess relative to enzyme concentrations to ensure pseudo-first-order conditions. Results were analyzed in GraphPad Prism and are reported as mean ± standard deviation.

Cathepsin B [2] = target: T3, Cathepsin B (Homo sapiens, UniProt P07858); test: Second-order rate constants of inhibition (kobs/[I]), cathepsin B; format: biochemical; set-up: made in house; details: Figure 4D; Cy5- and BODIPY-labeled probes
Description: as §2, §3

Cathepsin B [3] = target: T3, Cathepsin B; test: Labeling of cathepsin B in MDA-MB-231 live cells with Cy5 probes; format: cell-based; set-up: endogenous in cells; host or cells: MDA-MB-231; details: cellular environments; probe labeling
Description: as §1

Cathepsin S [4] = target: T4, Cathepsin S (Homo sapiens, UniProt P25774); test: Second-order rate constants of inhibition (kobs/[I]), cathepsin S; format: biochemical; details: Figure 4D
T4 construct: made in house
Description: as §2, §3

Cathepsin V = target: T5, Cathepsin V (Homo sapiens, UniProt O60911); test: Second-order rate constants of inhibition (kobs/[I]), cathepsin V; format: biochemical; details: Figure 4D; Cy5- and BODIPY-labeled probes
T5 construct: made in house
Description: as §2, §3

[5] = ADC stability in mouse serum (free MMAE by LC-MS/MS); format: in vitro ADME; details: anti-TROP-2 sacituzumab-based ADCs, up to 1 week, 37 °C
Description: Selected ADCs were incubated at 0.1 mg/mL in 100 μL of plasma samples for 24, 48, 72, and 168 h at 37 °C. The samples were then frozen at −80 °C and subjected to LC-MS/MS analysis. Stock solutions of MMAE and MMAE-d 8 standards were prepared in DMSO at a concentration of 10 mM and stored at −20 °C until use. Calibration solutions were prepared by diluting the stock solutions with methanol/ethanol (50:50, v/v). Mouse and human serum were purchased from Sigma-Aldrich. The concentration of MMAE in serum samples was determined based on the method described by Mak et al., with minor modifications. Briefly, 10 μL of serum was spiked with 5 μL of 25 nM MMAE-d 8 as an internal standard (IS), followed by the addition of 35 μL of ice-cold ethanol/methanol (50:50, v/v). The mixture was vortexed for 5 min and then incubated at − 20 °C for 30 min to precipitate proteins. The samples were subsequently centrifuged for 30 min at 20,000 × g and 4 °C. The supernatant was collected and subjected to LC-MS analysis. A Waters Acquity Premier UPLC system (Massachusetts, USA), consisting of a binary pump, thermostatic column holder, and refrigerated sample manager, was used for chromatographic separation. Separation was performed on an Acquity UPLC BEH C18 column (2.1 × 50 mm, 1.7 μm) using 0.1% formic acid in water as mobile phase A and 0.1% formic acid in methanol as mobile phase B. The column temperature and sample manager temperature were maintained at 45 and 15 °C, respectively. The injection volume was 1 μL, and the flow rate was 0.3 mL/min. The gradient started at 20% B, increased to 90% B over 3 min, and was held at 90% B for 2 min. Finally, the column was equilibrated back to 20% B for 1 min. The total run time was 6 min. MS analysis was performed using a Waters Xevo TQ-Absolute XR triple quadrupole mass spectrometer (Massachusetts, USA) equipped with an electrospray ionization interface. Samples were analyzed in positive multiple reaction monitoring (MRM) mode. […] MMAE and MMAE-d8 were detected based on their characteristic MRM transitions and retention times. […]

MDA-MB-231 cells = test: MTS cell viability assay, MDA-MB-231; format: cell-based, human; details: TROP-2-positive MDA-MB-231 cells
Description: The BT-474 (ATCC HTB-20, RRID: CVCL_0179), MCF-7 (ATCC HTB-22, RRID: CVCL_0031), and MDA-MB-231 (ATCC HTB-26, RRID: CVCL_0062) breast cancer cell lines were cultured at 37 °C in a humidified incubator with 5% CO2. Cells were maintained in Dulbecco’s Modified Eagle Medium (DMEM; Gibco, Cat. No. 41965−039) supplemented with 10% fetal bovine serum (FBS; Gibco, Cat. No. A5256801), L-glutamine, sodium pyruvate, penicillin […], and streptomycin (0.1 mg/mL). All cell lines were routinely tested for mycoplasma contamination (every 12−16 weeks) using a PCR-based detection kit.
Cell viability was evaluated using the MTS assay (CellTiter 96 AQueous One Solution Cell Proliferation Assay, Promega, Cat. No. G358B) according to the manufacturer’s instructions. BT-474 cells were seeded at a density of 20,000 cells/well, while MCF-7 and MDA-MB-231 cells were seeded at 5,000 cells/well in 96-well plates and allowed to adhere overnight. Peptide prodrugs, free MMAE (used as a control), or ADCs were added in serial dilutions. For peptide prodrugs and MMAE, concentrations ranged from 0.001 to 10 μM; for ADCs, from 0.03 to 3 μM. […] Absorbance was measured at 490 nm. Background absorbance (blank wells) was subtracted from all readings, and cell viability was calculated as a percentage relative to untreated controls. […]

Cathepsin S [6] = target: T4, Cathepsin S; test: Prodrug cleavage / MMAE release by LC-MS, cathepsin S; format: biochemical; details: prodrug 50 μM, pH 5.5, 37 °C, 0-120 min
Description: (§4) Cleavage assays were conducted at 37 °C in 1 mL reaction volumes using acetate buffer composed of 100 mM sodium acetate (pH 5.5), 100 mM NaCl, 1 mM EDTA, and 5 mM DTT. Buffers were prepared at room temperature and equilibrated before use. Prodrugs were initially dissolved in DMSO at a stock concentration of 10 mM, then diluted into the reaction buffer to a final concentration of 50 μM, maintaining a DMSO concentration below 0.5% (v/v). Reactions were initiated by the addition of recombinant cathepsin and carried out in glass LC-MS vials incubated at 37 °C. At specified time points (0, 5, 30, 60, and 120 min), aliquots were taken and directly injected into the LC-MS system without further processing. Quantification of MMAE release was based on absorbance at 220 nm. The area under the MMAE peak was integrated, and the amount of released MMAE was plotted as a function of time. Each time point was measured in triplicate, and results are presented as mean ± standard deviation (SD). A standard curve was prepared using free MMAE at concentrations of 1, 5, 10, 20, and 50 μM to enable accurate quantification of MMAE released from the prodrugs.

cathepsins B, L, and V = test: Prodrug cleavage / MMAE release by LC-MS, other cathepsins; format: biochemical, human; details: prodrug 50 μM, pH 5.5, 37 °C
Description: as §4

T4 sequence (P25774 115-331): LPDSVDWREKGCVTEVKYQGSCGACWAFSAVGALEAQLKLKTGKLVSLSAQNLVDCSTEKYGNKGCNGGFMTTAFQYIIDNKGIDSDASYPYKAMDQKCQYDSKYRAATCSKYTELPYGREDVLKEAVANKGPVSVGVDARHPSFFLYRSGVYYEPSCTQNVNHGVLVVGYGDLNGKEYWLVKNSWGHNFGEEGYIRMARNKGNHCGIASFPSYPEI
T1 sequence (P25774 115-331): as above
T5 sequence (O60911 114-334): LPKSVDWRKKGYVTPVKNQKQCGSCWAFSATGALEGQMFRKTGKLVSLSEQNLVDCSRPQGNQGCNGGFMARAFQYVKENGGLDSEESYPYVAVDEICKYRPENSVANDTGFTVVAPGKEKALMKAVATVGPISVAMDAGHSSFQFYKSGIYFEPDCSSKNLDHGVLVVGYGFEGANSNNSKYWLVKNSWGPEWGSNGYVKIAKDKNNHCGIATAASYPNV
T2 sequence (P07711 114-333): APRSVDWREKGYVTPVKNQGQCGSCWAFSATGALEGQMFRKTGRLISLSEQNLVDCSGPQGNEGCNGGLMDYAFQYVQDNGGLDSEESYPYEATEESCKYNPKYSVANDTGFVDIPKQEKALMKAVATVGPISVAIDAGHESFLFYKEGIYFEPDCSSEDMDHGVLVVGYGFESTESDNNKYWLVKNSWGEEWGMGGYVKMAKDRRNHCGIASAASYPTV

| Molecule | payload release [5] | cytotoxicity of sacituzumab (anti-TROP-2) ADCs (MDA-MB-231 cells) | cleavage / free MMAE release by cathepsin S (Cathepsin S [6]) | cleavage / free MMAE release by other cathepsins (cathepsins B, L, and V) | also measured |
| --- | --- | --- | --- | --- | --- |
| Cy5-PEG(4)-Met(O2)-Cit-NptGly-Glu(Me)-AOMK [OG-234] | – | – | – | – | detection of active cathepsin S in living cells [1]: able to detect active cathepsin S as soon as upon 3 h incubation; kobs/[I] Cath L (Cathepsin L): 5,530 M^-1s^-1; kobs/[I] Cath B (Cathepsin B [2]): 11,200 M^-1s^-1; off-target labeling of cathepsin B in cells (Cathepsin B [3]): minor off-target labeling of cathepsin B; kobs/[I] Cath S (Cathepsin S [4]; Cy5- and BODIPY-labeled probes): 253,000 M^-1s^-1; Selectivity S to B (Cathepsin S [4]; calculated from kobs/[I], cathepsin S over cathepsin B): 23; Selectivity S to L (Cathepsin S [4]; calculated from kobs/[I], cathepsin S over cathepsin L): 46; Selectivity S to V (Cathepsin S [4]; calculated from kobs/[I], cathepsin S over cathepsin V): 32; kobs/[I] Cath V (Cathepsin V): 7,900 M^-1s^-1 |
| ADC 300: sacituzumab (anti-TROP-2) ADC with pan-cathepsin Val-Cit linker, PABC spacer and MMAE payload | 1.5% | – | – | – | – |
| 314 anti-TROP-2 ADC: sacituzumab (anti-TROP-2) ADC with Met(O2)-Cit-NptGly-Glu(Me) linker, PABC spacer and MMAE payload | approximately 6% | markedly more potent | – | – | – |
| CC[C@H](C)[C@@H]([C@@H](CC(=O)N1CCC[C@H]1[C@H](OC)[C@@H](C)C(=O)N[C@H](C)[C@@H](O)c1ccccc1)OC)N(C)C(=O)[C@@H](NC(=O)[C@H](C(C)C)N(C)C(=O)OCc1ccc(NC(=O)[C@H](CCCNC(N)=O)NC(=O)[C@@H](NC(=O)OCc2ccccc2)C(C)C)cc1)C(C)C [compound 300, Cbz-Val-Cit-PABC-MMAE, reference compound] (Cbz-V[Cit][PABC][NMeV]V[Dil][Dolaproine]-X1; N-terminus and C-terminus assumed) | – | – | efficiently cleaved by cathepsins S, B, L, and V | efficiently cleaved by cathepsins S, B, L, and V | – |
| 313 anti-TROP-2 ADC: sacituzumab (anti-TROP-2) ADC with Phe(F5)-Cit-Lys(2ClZ)-Glu(Me) linker, PABC spacer and MMAE payload | approximately 6% | moderate toxicity | – | – | – |
| CC[C@H](C)[C@@H]([C@@H](CC(=O)N1CCC[C@H]1[C@H](OC)[C@@H](C)C(=O)N[C@H](C)[C@@H](O)c1ccccc1)OC)N(C)C(=O)[C@@H](NC(=O)[C@H](C(C)C)N(C)C(=O)OCc1ccc(NC(=O)[C@H](CCC(=O)OC)NC(=O)[C@H](CC(C)(C)C)NC(=O)[C@H](CCCNC(N)=O)NC(=O)[C@H](CCS(C)(=O)=O)NC(C)=O)cc1)C(C)C [compound 314, Ac-Met(O2)-Cit-NptGly-Glu(Me)-PABC-MMAE] (Ac-[Met(O2)][Cit][tBuAla]E(OMe)[PABC][NMeV]V[Dil][Dolaproine]-X1) | – | – | also cleaved by cathepsin S | moderate cross-reactivity toward other cathepsins | – |
